Experimental data taken from US6617337B1, “Use of nitroxides for the treatment of essential hypertension” (Georgetown University, priority 1997, dated 2003).
Where “and” joins values, the source holds several entries; their conditions need not be identical. Identical values can stand only once.

How the values were obtained:
Format in all cases: in vivo, rat
SHR and WKY rats [1] = test: MAP after 7 days of intraperitoneal Tempol; conditions: Tempol 250 mg/kg/day intraperitoneally for 7 days
SHR and WKY rats [2] = test: MAP and renal hemodynamics during bolus intravenous injection of Tempol in anesthetized rats; conditions: for Decrease in MAP: Tempol 72 μmol/kg IV; for RBF during Tempol: dose not specified (24 and 72 μmol/kg studied)
Description: In the first group, the short-term actions of Tempol were determined in anesthetized rats. […] The following data was obtained:
Materials and Methods. In Examples 3 to 6, groups of male SHR and WKY rats (200 to 300 g) were maintained on tap water and standard chow (Harlan-Teklad Inc.). […] In order to do this experiment, WKY (n=6) and SHR (n=6) were anesthetized with thiobutabarbital (100 mg/kg i.p., Inactin, Research Biochemicals International) and maintained at 37° C. on a servocontrolled heated rodent operating table. A tracheostomy was performed with polyethylene PE-240 tubing, and the left jugular vein and carotid artery were cannulated with PE-50 tubing. Intravenous infusion of 1% albumin dissolved in 0.154 M NaCl solution was infused at 2 mL/h i.v. to maintain an euvolemic state. A midline incision was made, and the left renal artery was isolated. A blood-flow probe was placed around the renal artery and connected to a transit-time blood flowmeter (1RB, Transonic Systems Inc.). We have previously shown that this method of measuring real-time changes in RBF is valid in the rat (Welch et al., 1995 Am. J. Physiol. 37: F175-F178).
MAP was continuously recorded from the carotid artery using a Statham pressure transducer (model P23, Gould Instruments) and MACLab data acquisition program. After 60 minutes of equilibration, there was a basal period for measurement of MAP and RBF over 30 minutes.

SHR and WKY rats [3] = test: Two weeks of oral Tempol in the drinking water: MAP, HR, renal hemodynamics, excretion, 8-ISO; conditions: Tempol 1 mM in drinking water
Description: Thereafter, WKY and SHR were anesthetized with thiobutabarbital (100 mg/kg, i.p., Inactin, Research Biochemicals International) and maintained at 37° C. on a servo-controlled heated rodent operating table. A tracheostomy was performed with polyethylene PE-240 tubing and the left jugular vein and carotid artery were cannulated with PE-50 tubing. A 1% albumin solution in 0.154 M NaCl was infused at 2 ml/h, i.v. to maintain a euvolemic state. A midline incision was made and the left renal artery was isolated. A blood flow probe was placed around the renal artery and connected to a transit-time blood flowmeter (IRB, Transonic Systems, Inc.). We have previously shown that this method of measuring real-time changes in renal blood flow (RBF) is valid in the rat. Mean arterial pressure (MAP) and heart rate (HR) were continuously recorded from the carotid artery using a Statham pressure transducer (model P23, Gould Instruments) and MACLab data acquisition software. Glomerular filtration rate (GFR) was determined from the clearance of [^3H]-inulin. Following surgery and a 60 min equilibration period, MAP, HR, GFR, and RBF were measured over 30 minutes and the data was averaged.

[4] = SHR, Tempol 4 mg/kg intravenously
[5] = WKY, Tempol 4 mg/kg intravenously

In the case of `CC1(C)CC(O)CC(C)(C)N1[O]` [Tempol, 4-hydroxy-2,2,6,6-tetramethyl-1-piperidinyloxy], the MAP after treatment (SHR and WKY rats [1]; SHR, from 133±2, p<0.01) is reported as 120±3 mm Hg, the “Effect on MAP” value (SHR and WKY rats [1]; WKY) is reported as “no effect” and the MAP (SHR and WKY rats [2]; SHR, Tempol 24 μmol/kg IV bolus) is reported as 147±4 mm Hg. The RVR (SHR and WKY rats [2]; SHR, Tempol 72 μmol/kg) was 17±2 mm Hg·mL^−1·min^−1, the MAP (SHR and WKY rats [2]; SHR, Tempol 72 μmol/kg IV bolus) was 104±9 mm Hg and the “Decrease in MAP” value (SHR and WKY rats [2]; SHR, P<0.05) was 28%. The “Decrease in RVR” value (SHR and WKY rats [2]; SHR, Tempol 72 μmol/kg, P<0.05) was 29%, the MAP (SHR and WKY rats [2]; [4]) was 108±8 mm Hg and the RVR (SHR and WKY rats [2]; [4]) was 17±2 mm Hg/ml/min. For the same molecule, the MAP (SHR and WKY rats [2]; SHR, Tempol 12 mg/kg intravenously) was 80±5 mm Hg, the “RBF during Tempol” value (SHR and WKY rats [2]; SHR) was 6.7 ± 0.8 mL/min and the RVR (SHR and WKY rats [2]; SHR, low-dose Tempol (24 μmol/kg)) was 24±3 mm Hg·mL^−1·min^−1. It also gave an MAP (SHR and WKY rats [2]; WKY, Tempol 24 μmol/kg IV bolus) of 114±5 mm Hg, an RVR (SHR and WKY rats [2]; WKY, Tempol 72 μmol/kg) of 15±1 mm Hg·mL^−1·min^−1 and an MAP (SHR and WKY rats [2]; WKY, Tempol 72 μmol/kg IV bolus) of 96±6 mm Hg. The “Decrease in MAP” value (SHR and WKY rats [2]; WKY, P<0.05) was 11%, the MAP (SHR and WKY rats [2]; [5]) was 98±6 mm Hg and the RVR (SHR and WKY rats [2]; [5]) was 15±1 mm Hg/ml/min. For the same molecule, the MAP (SHR and WKY rats [2]; WKY, Tempol 12 mg/kg intravenously) was 99±7 mm Hg, the “RBF during Tempol” value (SHR and WKY rats [2]; WKY) was 6.6 ± 0.7 mL/min and the RVR (SHR and WKY rats [2]; WKY, low-dose Tempol (24 μmol/kg)) was 17±1 mm Hg·mL^−1·min^−1. It also gave an RBF (SHR and WKY rats [3]; SHR, 2 weeks) of 5.6 ± 0.5 mL/min, an RVR (SHR and WKY rats [3]; SHR, 2 weeks) of 26.4 ± 2.6 mm Hg/ml/min and a UNaV (SHR and WKY rats [3]; SHR, 2 weeks) of 2.1 ± 0.2 mmol/24 hr. For the same molecule, the UV (SHR and WKY rats [3]; SHR, 2 weeks) was 15.2 ± 1.7 ml/24 hr, the “Decrease in RVR (tendency, not significant)” value (SHR and WKY rats [3]; SHR, two weeks) was 16% and the GFR (SHR and WKY rats [3]; SHR, two weeks) was 1.9 ± 0.3 mL/min and 2.0 ± 0.2 mL/min. The Heart rate (SHR and WKY rats [3]; SHR, two weeks) was 414±9 bts/min, the “Increase in GFR” value (SHR and WKY rats [3]; SHR, two weeks) was 17% and the MAP (SHR and WKY rats [3]; SHR, two weeks) was 134±6 mm Hg. The “UV8-ISO (8-iso-prostaglandin F2α excretion)” value (SHR and WKY rats [3]; SHR, two weeks) was 6.0±0.7 ng/24 hr, the “Decrease in MAP compared to normal SHR” value (SHR and WKY rats [3]; SHR, two weeks, p<0.05) was 18% and the “Decrease in UV8-ISO (8-iso-prostaglandin F2α excretion)” value (SHR and WKY rats [3]; SHR, two weeks, p<0.05) was 39%. For the same molecule, the Body weight gain (SHR and WKY rats [3]; 2 weeks, WKY and SHR pooled) was 66±3 g/14 days, the Food intake (SHR and WKY rats [3]; 2 weeks, WKY and SHR pooled) was 24 ± 1 g/day and the Water intake (SHR and WKY rats [3]; 2 weeks, WKY and SHR pooled, p<0.05 vs control) was 43 ± 3 mL/day. It also gave a GFR (SHR and WKY rats [3]; WKY, 2 weeks) of 2.5 ± 0.4 mL/min, an RBF (SHR and WKY rats [3]; WKY, 2 weeks) of 8.8 ± 0.9 mL/min and an RVR (SHR and WKY rats [3]; WKY, 2 weeks) of 14.2 ± 1.4 mm Hg/ml/min. For the same molecule, the UNaV (SHR and WKY rats [3]; WKY, 2 weeks) was 2.4 ± 0.6 mmol/24 hr, the UV (SHR and WKY rats [3]; WKY, 2 weeks) was 16.7 ± 2.3 ml/24 hr and the Heart rate (SHR and WKY rats [3]; WKY, two weeks) was 373±8 bts/min. For the same molecule, the MAP (SHR and WKY rats [3]; WKY, two weeks) was 118±7 mm Hg.
